Test system: 874868-142-R-J2-PDC complex spheroids, growth % test/control
Experiment: Anticancer human tumor 874868-142-R-J2-PDC patient-derived head and neck squamous carcinoma cell line growth inhibition [CLK]
Conditions: for IC50: curve of first compound; for viability, T/C: stronger effect = lower value
Outline: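 Patient-derived tumor cells grown as complex spheroids with HUVEC endothelial cells and mesenchymal stem cells, treated with drug combinations. Concentrations descend in half-log steps from near clinical Cmax, or from 10 microM if Cmax unknown.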

[1] = second compound 0.0316 µM, first compound 0.0316 µM
[2] = second compound 0.0316 µM, first compound 0.1 µM
[3] = second compound 0.0316 µM, first compound 0.316 µM
[4] = second compound 0.0316 µM, first compound 1 µM
[5] = second compound 0.0316 µM, first compound 3.16 µM
[6] = second compound 0.0316 µM, first compound 10 µM
[7] = second compound 0.1 µM, first compound 0.0316 µM
[8] = second compound 0.1 µM, first compound 0.1 µM
[9] = second compound 0.1 µM, first compound 0.316 µM
[10] = second compound 0.1 µM, first compound 1 µM
[11] = second compound 0.1 µM, first compound 3.16 µM
[12] = second compound 0.1 µM, first compound 10 µM
[13] = second compound 0.316 µM, first compound 0.0316 µM
[14] = second compound 0.316 µM, first compound 0.1 µM
[15] = second compound 0.316 µM, first compound 0.316 µM
[16] = second compound 0.316 µM, first compound 1 µM
[17] = second compound 0.316 µM, first compound 3.16 µM
[18] = second compound 0.316 µM, first compound 10 µM
[19] = second compound 1 µM, first compound 0.0316 µM
[20] = second compound 1 µM, first compound 0.1 µM
[21] = second compound 1 µM, first compound 0.316 µM
[22] = second compound 1 µM, first compound 1 µM
[23] = second compound 1 µM, first compound 3.16 µM
[24] = second compound 1 µM, first compound 10 µM
[25] = second compound 3.16 µM, first compound 0.0316 µM
[26] = second compound 3.16 µM, first compound 0.1 µM
[27] = second compound 3.16 µM, first compound 0.316 µM
[28] = second compound 3.16 µM, first compound 1 µM
[29] = second compound 3.16 µM, first compound 3.16 µM
[30] = second compound 3.16 µM, first compound 10 µM
[31] = second compound 10 µM, first compound 0.0316 µM
[32] = second compound 10 µM, first compound 0.1 µM
[33] = second compound 10 µM, first compound 0.316 µM
[34] = second compound 10 µM, first compound 1 µM
[35] = second compound 10 µM, first compound 3.16 µM
[36] = second compound 10 µM, first compound 10 µM
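Also: spheroids exposed to the compounds for 7 days.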
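For viability, T/C in this document: 100% = DMSO vehicle control viability.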

Question: For `C=CC(=O)N1CCN(c2nc(=O)n(-c3c(C)ccnc3C(C)C)c3nc(-c4c(O)cccc4F)c(F)cc23)C(C)C1` (centres undefined) + CNC(=O)c1ccc(Nc2nc(OC3CCCC3)c3c(-c4ccc5nc(C)oc5c4)c[nH]c3n2)c(OC)c1, which IC50 (second compound 0.0316 µM) is on record?
Answer: The IC50 was greater than 10 µM.

Question: What about the IC50 (second compound 0.1 µM) of the same compound?
Answer: Its IC50 is greater than 10 µM.

Question: And the IC50 (second compound 0.316 µM)?
Answer: The IC50 was greater than 10 µM.

Question: What about the IC50 (second compound 1 µM) of the same compound?
Answer: Its IC50 is less than 0.0316 µM.

Question: And the IC50 (second compound 3.16 µM)?
Answer: The IC50 was less than 0.0316 µM.

Question: What about the IC50 (second compound 10 µM) of the same compound?
Answer: Its IC50 is less than 0.0316 µM.

Question: What about the viability, T/C [1] of the same compound?
Answer: The viability, T/C was 99.7%.

Question: And the viability, T/C [2]?
Answer: Its viability, T/C is 82.6%.

Question: What about the viability, T/C [3] of the same compound?
Answer: The viability, T/C was 96.6%.

Question: What about the viability, T/C [4] of the same compound?
Answer: The viability, T/C was 108%.

Question: And the viability, T/C [5]?
Answer: Its viability, T/C is 124%.

Question: What about the viability, T/C [6] of the same compound?
Answer: The viability, T/C was 103%.

Question: What about the viability, T/C [7] of the same compound?
Answer: The viability, T/C was 82.7%.

Question: What about the viability, T/C [8] of the same compound?
Answer: Its viability, T/C is 91.5%.

Question: And the viability, T/C [9]?
Answer: The viability, T/C was 90.3%.

Question: And the viability, T/C [10]?
Answer: Its viability, T/C is 92.1%.

Question: And the viability, T/C [11]?
Answer: The viability, T/C was 101%.

Question: And the viability, T/C [12]?
Answer: The viability, T/C was 88%.

Question: What about the viability, T/C [13] of the same compound?
Answer: Its viability, T/C is 50.4%.

Question: And the viability, T/C [14]?
Answer: Its viability, T/C is 59.7%.

Question: And the viability, T/C [15]?
Answer: Its viability, T/C is 56.9%.

Question: And the viability, T/C [16]?
Answer: Its viability, T/C is 53.4%.

Question: What about the viability, T/C [17] of the same compound?
Answer: Its viability, T/C is 59%.

Question: What about the viability, T/C [18] of the same compound?
Answer: The viability, T/C was 58.3%.

Question: And the viability, T/C [19]?
Answer: Its viability, T/C is 40.6%.

Question: And the viability, T/C [20]?
Answer: Its viability, T/C is 47.7%.

Question: And the viability, T/C [21]?
Answer: Its viability, T/C is 36.3%.

Question: And the viability, T/C [22]?
Answer: Its viability, T/C is 46.1%.

Question: And the viability, T/C [23]?
Answer: The viability, T/C was 41.2%.

Question: And the viability, T/C [24]?
Answer: The viability, T/C was 40.6%.

Question: And the viability, T/C [25]?
Answer: The viability, T/C was 42.8%.

Question: What about the viability, T/C [26] of the same compound?
Answer: Its viability, T/C is 39.2%.

Question: And the viability, T/C [27]?
Answer: Its viability, T/C is 41.1%.

Question: What about the viability, T/C [28] of the same compound?
Answer: The viability, T/C was 45.2%.

Question: What about the viability, T/C [29] of the same compound?
Answer: The viability, T/C was 53%.

Question: What about the viability, T/C [30] of the same compound?
Answer: Its viability, T/C is 36.4%.

Question: What about the viability, T/C [31] of the same compound?
Answer: Its viability, T/C is 31.3%.

Question: And the viability, T/C [32]?
Answer: Its viability, T/C is 33.5%.

Question: What about the viability, T/C [33] of the same compound?
Answer: Its viability, T/C is 35.4%.

Question: And the viability, T/C [34]?
Answer: Its viability, T/C is 41%.

Question: And the viability, T/C [35]?
Answer: Its viability, T/C is 40%.

Question: And the viability, T/C [36]?
Answer: Its viability, T/C is 28.3%.

Question: What does the source list for `CC(CO)NC(=O)c1cc(-c2ccc(Cl)cc2)nn(-c2cnn(C)c2)c1=O` (centres undefined) + CNC(=O)c1ccc(Nc2nc(OC3CCCC3)c3c(-c4ccc5nc(C)oc5c4)c[nH]c3n2)c(OC)c1?
Answer: IC50 (second compound 0.0316 µM): > 10 µM; IC50 (second compound 0.1 µM): > 10 µM; IC50 (second compound 0.316 µM): > 10 µM; IC50 (second compound 1 µM): < 0.0316 µM; IC50 (second compound 3.16 µM): < 0.0316 µM; IC50 (second compound 10 µM): < 0.0316 µM; viability, T/C [1]: 98%; viability, T/C [2]: 90.1%; viability, T/C [3]: 90.2%; viability, T/C [4]: 120%; viability, T/C [5]: 125%; viability, T/C [6]: 104%; viability, T/C [7]: 82.2%; viability, T/C [8]: 90%; viability, T/C [9]: 82.6%; viability, T/C [10]: 85.9%; viability, T/C [11]: 94.8%; viability, T/C [12]: 109%; viability, T/C [13]: 50.6%; viability, T/C [14]: 51.4%; viability, T/C [15]: 56.2%; viability, T/C [16]: 48.5%; viability, T/C [17]: 58.5%; viability, T/C [18]: 67.4%; viability, T/C [19]: 52.4%; viability, T/C [20]: 38.1%; viability, T/C [21]: 34.9%; viability, T/C [22]: 43.1%; viability, T/C [23]: 50.8%; viability, T/C [24]: 50.7%; viability, T/C [25]: 40.3%; viability, T/C [26]: 36.8%; viability, T/C [27]: 44.3%; viability, T/C [28]: 41.2%; viability, T/C [29]: 52.4%; viability, T/C [30]: 44.4%; viability, T/C [31]: 34.7%; viability, T/C [32]: 36.4%; viability, T/C [33]: 36.1%; viability, T/C [34]: 33.7%; viability, T/C [35]: 50.9%; viability, T/C [36]: 42.2%

From PubChem BioAssay AID2060601 (Molecular Pharmacology Branch, DTP, NCI, 2025)
